US20100021885A1, “REAGENT SETS AND GENE SIGNATURES FOR NON-GENOTOXIC HEPATOCARCINOGENICITY” (priority 2006, published 2010)
Read-outs that look alike come from different tables or passages of the source.

Key:
[1] = test system: liver of rats; details: cited from earlier work
[2] = test system: livers from treated male Sprague-Dawley rats
Description: Briefly, in vivo short-term repeat dose rat studies were conducted on over 580 test compounds, including marketed and withdrawn drugs, environmental and industrial toxicants, and standard biochemical reagents. Rats (three per group) were dosed daily at either a low or high dose. […] Animals were necropsied on days 0.25, 1, 3, and 5 or 7. Up to 13 tissues (e.g., liver, kidney, heart, bone marrow, blood, spleen, brain, intestine, glandular and nonglandular stomach, lung, muscle, and gonads) were collected for histopathological evaluation and microarray expression profiling on the Amersham CodeLink™ RU1 platform (also referred to herein as “CodeLink Uniset™ Rat 1 Bioarray”). In addition, a clinical pathology panel consisting of 37 clinical chemistry and hematology parameters was generated from blood samples collected on days 3 and 5.
The remaining 21 NGTC chemicals and 26 NC chemicals were reserved for independent validation of the signature. Each chemical was evaluated in a short term repeat dose in vivo study in male Sprague-Dawley rats (n=3/group). The livers from treated and control rats were collected after 1, 3 and 5 days of dosing and RNA was extracted for gene expression profiling. Gene expression changes in treated animals were compared to suitably matched controls and represented as average log10 ratios for each treatment group. Since the development of tumors is a long term multi-step process, the 100 training set chemicals were profiled at the latest time point in order to capture gene expression changes that were likely to be reflective of repeat dose treatment effects that contribute to carcinogenicity and not reflective of an initial stimulus following a single dose that may be transient in nature.
Male Sprague-Dawley (Crl:CD®(SD)(IGS)BR) rats (weight matched, 7 to 8 weeks of age and averaging 200 to 250 g) were purchased from Charles River Laboratories (Portage, Mich.) and housed individually in hanging, stainless steel, wire-bottom cages in a temperature (66-77° F.), light (12-hour dark/light cycle) and humidity (30-70%) controlled room. […] Housing and treatment of the animals were in accordance with regulations outlined in the USDA Animal Welfare Act (9 CFR Parts 1, 2 and 3). Animals were assigned to groups such that mean body weights were within 10% of the mean vehicle control group. Test articles were administered either orally (10 ml of corn oil/kg body weight) or by intra-peritoneal injection (5 ml of saline/kg body weight), as indicated. Animals were dosed once daily starting on day 0, and necropsied 24 hrs after the last dose, as indicated. An equivalent number of time- and vehicle-matched control rats were treated concurrently.
Briefly, liver samples from 3 rats were chosen from each treatment and control group for gene expression analysis on the Codelink Uniset™ Rat 1 Bioarray (GE Healthcare Bio-Sciences Corp., Piscataway, N.J.). A complete list of probes on the array is provided on the Amersham Biosciences web site (www.amershambiosciences.com). Log transformed signal data for all probes were array-wise normalized used Array Qualifier (Novation Biosciences, Palo Alto, Calif.), a non-linear centralization normalization procedure adapted for the CodeLink microarray platform. Log10 ratios for each experimental group are computed as the difference between the average of the logs of the normalized experimental signals and the average of the logs of the normalized control signals for each gene.
where S is the scalar product and b is the bias term. Evaluation of S for a test experiment across the n genes in the signature determines what side of the hyperplane in m dimensional space the test experiment lies, and thus the result of the classification. Experiments with scalar products greater than 0 are considered positive for non-genotoxic hepatocarcinogenicity.

[3] = literature-curated: induction of neoplastic lesions in the liver of rats, two year rodent bioassay results and/or class effect information
[4] = 37 gene signature, maximum scalar product over days 1, 3 and 5, scalar product greater than zero = positive
[5] = maximum of days 1, 3, 5, greater than zero = classified non-genotoxic hepatocarcinogen
[6] = male, Sprague-Dawley, rat, in vivo
[7] = test chemicals, literature class NGTC or NC

CN(C)CCN(Cc1cccs1)c1ccccn1
Class [1, 3]: NGTC

C=C(Cl)Cl [1,1-dichloroethene, reference compound]
signature prediction for non-genotoxic hepatocarcinogenicity [2, 4]: negative
Max (maximum scalar product observed over the multiple time points) [2, 5]: −0.80

Clc1cc2c(cc1Cl)Oc1cc(Cl)c(Cl)cc1O2 [2,3,7,8-TETRACHLORODIBENZO-P-DIOXIN]
Class [1, 3]: NGTC

CC(=O)Nc1ccc2c(c1)Cc1ccccc1-2 [2-acetylaminofluorene, reference compound]
signature prediction for non-genotoxic hepatocarcinogenicity [2, 4]: weakly positive
scalar product (SP) ([2]; 37 gene signature, maximum scalar product over the time points): 0.03
Max (maximum scalar product observed over the multiple time points) [2, 5]: 0.03
Class ([1]; genotoxic hepatocarcinogens section): GTC

C[C@]12CCC(=O)C=C1CC[C@@H]1[C@@H]2CC[C@@]2(C)[C@H]1CC[C@]2(C)O [17-METHYLTESTOSTERONE]
Class [1, 3]: NGTC

Clc1ccc2c(c1)C(N1CCNCC1)=Nc1ccccc1O2 [AMOXAPINE]
Max (maximum scalar product observed over the multiple time points) [2, 6]: −1.00

CC(C)c1c(C(=O)Nc2ccccc2)c(-c2ccccc2)c(-c2ccc(F)cc2)n1CC[C@@H](O)C[C@@H](O)CC(=O)O [ATORVASTATIN]
Max (maximum scalar product observed over the multiple time points) [2, 6]: 1.85

CC(C)(C)CC(C)(C)c1ccc(OCCOCC[N+](C)(C)Cc2ccccc2)cc1 [BENZETHONIUM CHLORIDE]
Day 1 (scalar product) ([2]; male, rat, in vivo): −0.13
Day 3 (scalar product) ([2]; male, rat, in vivo): −1.34
Day 5 (scalar product) ([2]; male, rat, in vivo): −1.68
Max (maximum scalar product observed over the multiple time points) ([2]; male, rat, in vivo): −0.13

C[C@]12CC[C@@H]3c4ccc(OC(=O)c5ccccc5)cc4CC[C@H]3[C@@H]1CC[C@@H]2O [BETA-ESTRADIOL 3-BENZOATE]
Day 1 (scalar product) ([2]; Female, 37 gene signature, day 1): 0.81
Day 3 (scalar product) ([2]; Female, 37 gene signature, day 3): 0.25
Day 5 (scalar product) ([2]; Female, 37 gene signature, day 5): 0.03
Max (maximum scalar product) ([2]; Female, maximum of days 1, 3, 5): 0.81

O=c1cc(-c2ccccc2)oc2ccc3ccccc3c12 [BETA-NAPHTHOFLAVONE]
Max (maximum scalar product observed over the multiple time points) [2, 5]: 0.81
Class [1, 7]: NGTC

CC(C)(Oc1ccc(CCNC(=O)c2ccc(Cl)cc2)cc1)C(=O)O [BEZAFIBRATE]
Max (maximum scalar product observed over the multiple time points) [2, 6]: 2.72
Class [1, 7]: NGTC

CC(NC(C)(C)C)C(=O)c1cccc(Cl)c1 (stereo not shown) [BUPROPION]
Class [1, 3]: NGTC

CCOC(=O)n1ccn(C)c1=S [CARBIMAZOLE]
Max (maximum scalar product observed over the multiple time points) [2, 6]: −0.38

C=C1CC[C@H](O)C/C1=C/C=C1\CCC[C@]2(C)[C@@H]([C@H](C)CCCC(C)C)CC[C@@H]12 [CHOLECALCIFEROL]
Max (maximum scalar product observed over the multiple time points) [2, 5]: −1.38

CN(C)CCCC1(c2ccc(F)cc2)OCc2cc(C#N)ccc21 (stereo not shown) [CITALOPRAM]
Max (maximum scalar product observed over the multiple time points) [2, 6]: −0.28

CCOC(=O)C(C)(C)Oc1ccc(Cl)cc1 [CLOFIBRATE]
Class [1, 3]: NGTC

CC(C)(Oc1ccc(Cl)cc1)C(=O)O [CLOFIBRIC ACID]
Max (maximum scalar product observed over the multiple time points) [2, 6]: 0.86

CCN(CC)CCOc1ccc(C(=C(Cl)c2ccccc2)c2ccccc2)cc1 [CLOMIPHENE]
Max (maximum scalar product observed over the multiple time points) [2, 6]: −1.71

CN(C)CCCN1c2ccccc2CCc2ccc(Cl)cc21 [CLOMIPRAMINE]
Max (maximum scalar product observed over the multiple time points) [2, 6]: −1.46

Nc1ccn([C@@H]2O[C@H](CO)[C@@H](O)[C@@H]2O)c(=O)n1 [CYTARABINE]
Max (maximum scalar product observed over the multiple time points) [2, 6]: −0.71

CN1C(=O)CN=C(c2ccccc2)c2cc(Cl)ccc21 [DIAZEPAM]
Day 1 (scalar product) ([2]; male, rat, in vivo): −1.40
Day 3 (scalar product) ([2]; male, rat, in vivo): −0.06
Day 5 (scalar product) ([2]; male, rat, in vivo): 0.52
Max (maximum scalar product observed over the multiple time points) ([2]; male, rat, in vivo): 0.52

CC[C@H]1OC(=O)[C@H](C)[C@@H](O[C@H]2C[C@@](C)(OC)[C@@H](O)[C@H](C)O2)[C@H](C)[C@@H](O[C@@H]2O[C@H](C)C[C@H](N(C)C)[C@H]2O)[C@](C)(O)C[C@@H](C)C(=O)[C@H](C)[C@@H](O)[C@]1(C)O [ERYTHROMYCIN]
Max (maximum scalar product observed over the multiple time points) [2, 6]: −1.18

C[C@]12CC[C@@H]3c4ccc(O)cc4CC[C@H]3[C@@H]1C[C@@H](O)[C@@H]2O [ESTRIOL]
Class ([1]; rat, in vivo): NGTC

CCO [ETHANOL]
Class [1, 3]: NGTC

C#C[C@]1(O)CC[C@H]2[C@@H]3CCc4cc(O)ccc4[C@H]3CC[C@@]21C [ETHINYLESTRADIOL]
Class [1, 3]: NGTC

CC(C)OC(=O)C(C)(C)Oc1ccc(C(=O)c2ccc(Cl)cc2)cc1 [FENOFIBRATE]
Class [1, 3]: NGTC

CC(C)(C)NC(=O)[C@H]1CC[C@H]2[C@@H]3CC[C@H]4NC(=O)C=C[C@]4(C)[C@H]3CC[C@]12C [FINASTERIDE]
Max (maximum scalar product observed over the multiple time points) [2, 6]: 0.22

Cc1ccc(C)c(OCCCC(C)(C)C(=O)O)c1 [GEMFIBROZIL]
Class [1, 3]: NGTC

CC(C)=CCC/C(C)=C/CO [GERANIOL]
Max (maximum scalar product observed over the multiple time points) [2, 5]: −0.30

O=C1Nc2ccc(Cl)cc2C(c2ccccc2Cl)=NC1O (stereo not shown) [LORAZEPAM]
Max (maximum scalar product observed over the multiple time points) [2, 5]: 0.10

CC(C)(Oc1ccc(C2CCCc3ccccc32)cc1)C(=O)O (stereo not shown) [NAFENOPIN]
Class [1, 3]: NGTC

Cc1ccnc2c1NC(=O)c1cccnc1N2C1CC1 [NEVIRAPINE]
Max (maximum scalar product observed over the multiple time points) [2, 6]: −0.38

C[C@]12C/C(=C/O)C(=O)C[C@@H]1CC[C@@H]1[C@@H]2CC[C@@]2(C)[C@H]1CC[C@]2(C)O [OXYMETHOLONE]
Max (maximum scalar product observed over the multiple time points) [2, 5]: −0.36

CCCC(C)C1(CC)C(=O)NC(=O)NC1=O (stereo not shown) [PENTOBARBITAL]
Class [1, 3]: NGTC

c1ccc2c(c1)Nc1ccccc1S2 [PHENOTHIAZINE]
Max (maximum scalar product observed over the multiple time points) [2, 5]: 0.70

Cc1cccc(Nc2cc(Cl)nc(SCC(=O)O)n2)c1C [PIRINIXIC ACID]
Class [1, 3]: NGTC

CC[C@H](C)C(=O)O[C@H]1C[C@H](O)C=C2C=C[C@H](C)[C@H](CC[C@@H](O)C[C@@H](O)CC(=O)O)[C@H]21 [PRAVASTATIN]
Class [1, 3]: NGTC

CC(=O)[C@H]1CC[C@H]2[C@@H]3CCC4=CC(=O)CC[C@]4(C)[C@H]3CC[C@]12C [PROGESTERONE]
Class [1, 3]: NGTC

OCCOCCN1CCN(C2=Nc3ccccc3Sc3ccccc32)CC1 [QUETIAPINE]
Max (maximum scalar product observed over the multiple time points) [2, 6]: −0.42

O=C(c1ccc(OCCN2CCCCC2)cc1)c1c(-c2ccc(O)cc2)sc2cc(O)ccc12 [RALOXIFENE, reference compound]
Max (maximum scalar product) ([2]; female, Sprague-Dawley, rat, in vivo): −0.66
Day 1 (scalar product) ([2]; female, Sprague-Dawley, rat, in vivo, 1 day): −0.66
Day 3 (scalar product) ([2]; female, Sprague-Dawley, rat, in vivo, 3 days): −1.25
Day 5 (scalar product) ([2]; female, Sprague-Dawley, rat, in vivo, 5 days): −2.11

C=CCc1ccc2c(c1)OCO2 [SAFROLE]
Class ([1]; rat, in vivo): NGTC

CN(C)[C@@H]1C(O)=C(C(N)=O)C(=O)[C@@]2(O)C(O)=C3C(=O)c4c(O)cccc4[C@@](C)(O)[C@H]3C[C@@H]12 [TETRACYCLINE]
Day 1 (scalar product) ([2]; male, rat, in vivo): −0.40
Day 3 (scalar product) ([2]; male, rat, in vivo): −1.18
Day 5 (scalar product) ([2]; male, rat, in vivo): −1.31
Max (maximum scalar product observed over the multiple time points) ([2]; male, rat, in vivo): −0.40

CC(=N)S [THIOACETAMIDE]
Class [1, 3]: NGTC

Cc1cccc(C)c1NC(=O)C(C)N (stereo not shown) [TOCAINIDE]
Max (maximum scalar product observed over the multiple time points) [2, 6]: −0.91

COc1ccc(C(CN(C)C)C2(O)CCCCC2)cc1 (stereo not shown) [VENLAFAXINE]
Max (maximum scalar product observed over the multiple time points) [2, 5]: −0.95

CCC1=C[C@@H]2CN(C1)Cc1c([nH]c3ccccc13)[C@@](C(=O)OC)(c1cc3c(cc1OC)N(C)[C@H]1[C@@](O)(C(=O)OC)[C@H](OC(C)=O)[C@]4(CC)C=CCN5CC[C@]31[C@@H]54)C2 [VINORELBINE]
Max (maximum scalar product observed over the multiple time points) [2, 6]: −1.37

CC(O)CO (stereo not shown) [propylene glycol, reference compound]
Max (maximum scalar product observed over the multiple time points) [2, 6]: −0.80
signature prediction for non-genotoxic hepatocarcinogenicity ([2]; rat, in vivo): negative

aflatoxin B1
Class ([1]; rat, in vivo): GTC
